# Reference: patent US10703761B2, “Bile acid receptor modulators and methods of use thereof” (City of Hope, priority 2016, dated 2020)
# What was measured:
# FXR-RXR heterodimers = molecular target: T1, FXR-RXR heterodimers (Homo sapiens, UniProt Q96RI1); assay: Specific DNA binding by FXR-RXR heterodimers in vitro; type: biochemical; details: data not shown
# T1 sequence (Q96RI1 1-486): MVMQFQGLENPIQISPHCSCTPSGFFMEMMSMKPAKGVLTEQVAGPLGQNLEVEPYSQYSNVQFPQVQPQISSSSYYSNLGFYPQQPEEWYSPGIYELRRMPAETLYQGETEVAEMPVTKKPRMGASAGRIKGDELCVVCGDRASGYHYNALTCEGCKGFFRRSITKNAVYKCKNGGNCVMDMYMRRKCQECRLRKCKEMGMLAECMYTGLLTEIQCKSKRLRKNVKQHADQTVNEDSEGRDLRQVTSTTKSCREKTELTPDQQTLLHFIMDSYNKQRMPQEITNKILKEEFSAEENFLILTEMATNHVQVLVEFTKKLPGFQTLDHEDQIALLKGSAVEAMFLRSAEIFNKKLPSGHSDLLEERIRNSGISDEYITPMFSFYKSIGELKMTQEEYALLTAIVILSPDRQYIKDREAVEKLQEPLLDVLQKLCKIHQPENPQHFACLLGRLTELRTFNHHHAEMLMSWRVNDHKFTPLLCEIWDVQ
# T1 sequence (P19793 1-462 partner): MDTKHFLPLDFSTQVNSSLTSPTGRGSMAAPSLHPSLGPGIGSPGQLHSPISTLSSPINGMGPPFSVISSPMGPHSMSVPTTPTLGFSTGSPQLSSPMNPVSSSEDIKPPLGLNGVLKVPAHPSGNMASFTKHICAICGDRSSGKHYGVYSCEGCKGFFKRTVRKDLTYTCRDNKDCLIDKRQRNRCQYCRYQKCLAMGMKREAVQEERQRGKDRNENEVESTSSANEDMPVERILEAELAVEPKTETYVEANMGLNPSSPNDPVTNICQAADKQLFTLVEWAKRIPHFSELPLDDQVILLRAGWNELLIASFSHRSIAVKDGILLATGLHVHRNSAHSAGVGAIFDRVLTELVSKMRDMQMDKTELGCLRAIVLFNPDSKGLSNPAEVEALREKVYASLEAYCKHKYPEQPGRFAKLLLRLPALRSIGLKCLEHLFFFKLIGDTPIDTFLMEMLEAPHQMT
# [1] = molecular target: T2, Gal4 DNA binding domain FXR ligand-binding domain fusion protein (Homo sapiens, UniProt Q96RI1); assay: Gal4 DBD-FXR LBD chimera transactivation assay in HEK 293 cells; type: cell-based; details: CDCA 100 μM, compounds 10 μM
# T2 construct: expressed in transfected cells; host or cells: HEK 293
# T2 sequence (Q96RI1 262-486 limits assumed): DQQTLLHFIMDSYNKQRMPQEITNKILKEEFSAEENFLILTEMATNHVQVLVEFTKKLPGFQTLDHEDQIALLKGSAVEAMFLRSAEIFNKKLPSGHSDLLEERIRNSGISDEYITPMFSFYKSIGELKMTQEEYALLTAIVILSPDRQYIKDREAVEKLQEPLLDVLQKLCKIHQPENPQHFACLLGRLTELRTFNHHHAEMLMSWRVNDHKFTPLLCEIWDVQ
# Protocol: FIG. 10: Berberine derivatives inhibit FXR transactivation. HEK 293 cells were cotransfected with a luciferase reporter plasmid containing five copies of the Gal4 binding site and an expression vector for a Gal4 DNA binding domain FXR ligand-binding domain fusion protein, along with a CMX-β-gal internal control. CDCA: 100 μM, Compounds: 10 μM
# In the presence of 100 μM CDCA, a concentration approximately threefold above that required for half-maximal activation of FXR, 10 μM selected berberine derivatives decreased FXR transactivation by nearly 50%.
# FXR = molecular target: T3, FXR (Homo sapiens, UniProt Q96RI1); assay: FXR luciferase reporter assay, transient transfection with a synthetic FXR responsive reporter plasmid in HEK293 cells; type: cell-based; details: compound alone, compared with GW4064
# T3 construct: expressed in transfected cells; host or cells: HEK293 (transient)
# T3 sequence (Q96RI1 1-486): T1 sequence (Q96RI1 1-486)
# T3 sequence (P19793 1-462 partner): T1 sequence (P19793 1-462 partner)
# Protocol: Effect of berberine derivatives and γ-aminobutyric acid derivative on FXR inhibition was initially assessed using transient transfections with a synthetic FXR responsive reporter plasmid. HEK 293 Cells were treated with vehicle alone or 100 μM CDCA with or without compounds, as indicated. Results are luciferase expression normalized using the β-gal internal control.
# TGR5-reporting activity was evaluated by luciferase assay. Treatments were performed in quadruplicate and normalized with β-galactosidase. HEK293 cells were transfected with FXR and RXRα, and FXRE-containing luciferase construct. Cells were treated with 10 μM of indicated compounds; luciferase was measured and normalized with β-galactosidase.
# To evaluate TGR5 activity of compounds, cells were transfected 100 ng pCRE-luc reporter along with pCMV-galactosidase (10 ng) as an internal control for normalization of transfection efficiency. Plasmids were complexed with […] of Fugene 6 reagent (Promega, Madison, Wis.) in OptiMEM (Invitrogen, Carlsbad, Calif.) and cells were transfected for 18 h. The following day, cells were treated with vehicle and appropriate ligand as indicated. Luciferase and β-galactosidase activities were assayed 6 h later using Luciferase Assay System (Promega) and Galacto-Star (Applied Biosystems, Foster City, Calif.) reagents, respectively, and a MLX luminometer (Dynex Technologies, Chantilly, Va.). To evaluate the FXR activity of compounds, HEK293 cells were transfected with 25 ng of farnesoid X receptor expression plasmid (pCMX-hFXR), 25 ng of retinoid X receptor expression plasmid (pCMXhRXR), 100 ng of reporter plasmid (pEcREx6-TK-Luc), and 10 ng of pCMV-b-galactosidase as an internal control in each well, using Fugene 6 reagent. Approximately 18 h after transfection, cells were incubated for 12 h with different concentrations of each.
compound,measurement,setting,value
COc1ccc2cc3[n+](cc2c1OC)CCc1cc2c(cc1-3)OCO2 [berberine],Specific DNA binding by FXR-RXR heterodimers,FXR-RXR heterodimers,did not affect specific DNA binding
same,Transactivation by GAL4 DBD-FXR LBD chimera,[1],did inhibit transactivation
same,FXR activity of compound alone (agonism),FXR,failed to activate FXR
same,FXR activity of compound alone (agonism),FXR; listed as Berberine,no effect on FXR activity
